Source: PubChem BioAssay (NCI)
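Where inhibition never reached the appropriate level, the endpoint shown equals the highest concentration tested. Otherwise, values were interpolated linearly from a five-concentration, 48-hour dose response in 96-well plates. TGI marks complete inhibition of growth.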

How the values were obtained:
Test in all cases: inhibition of tumour cell growth, NCI panel, 48 h
786-0 renal = system: 786-0 renal
A498 renal = system: A498 renal
A549 NSCLC = system: A549 NSCLC
ACHN renal = system: ACHN renal
CAKI-1 renal = system: CAKI-1 renal
CCRF-CEM leukemia = system: CCRF-CEM leukemia
COLO 205 colon = system: COLO 205 colon
DLD-1 colon = system: DLD-1 colon
DMS 114 small cell lung = system: DMS 114 small cell lung
DMS 273 small cell lung = system: DMS 273 small cell lung
EKVX NSCLC = system: EKVX NSCLC
HCC-2998 colon = system: HCC-2998 colon
HCT-116 colon = system: HCT-116 colon
HCT-15 colon = system: HCT-15 colon
HL-60(TB) leukemia = system: HL-60(TB) leukemia
HOP-18 NSCLC = system: HOP-18 NSCLC
HOP-62 NSCLC = system: HOP-62 NSCLC
HOP-92 NSCLC = system: HOP-92 NSCLC
HT29 colon = system: HT29 colon
IGROV1 ovarian = system: IGROV1 ovarian
K-562 leukemia = system: K-562 leukemia
KM12 colon = system: KM12 colon
KM20L2 colon = system: KM20L2 colon
LOX IMVI melanoma = system: LOX IMVI melanoma
LXFL 529 NSCLC = system: LXFL 529 NSCLC
M14 melanoma = system: M14 melanoma
M19-MEL melanoma = system: M19-MEL melanoma
MALME-3M melanoma = system: MALME-3M melanoma
MOLT-4 leukemia = system: MOLT-4 leukemia
NCI-H226 lung = system: NCI-H226 lung
NCI-H23 lung = system: NCI-H23 lung
NCI-H460 lung = system: NCI-H460 lung
NCI-H522 lung = system: NCI-H522 lung
OVCAR-3 ovarian = system: OVCAR-3 ovarian
OVCAR-4 ovarian = system: OVCAR-4 ovarian
OVCAR-5 ovarian = system: OVCAR-5 ovarian
OVCAR-8 ovarian = system: OVCAR-8 ovarian
RPMI-8226 leukemia = system: RPMI-8226 leukemia
RXF 393 renal = system: RXF 393 renal
RXF-631 renal = system: RXF-631 renal
SF-268 CNS = system: SF-268 CNS
SF-295 CNS = system: SF-295 CNS
SF-539 CNS = system: SF-539 CNS
SK-MEL-2 melanoma = system: SK-MEL-2 melanoma
SK-MEL-28 melanoma = system: SK-MEL-28 melanoma
SK-MEL-5 melanoma = system: SK-MEL-5 melanoma
SK-OV-3 ovarian = system: SK-OV-3 ovarian
SN12C renal = system: SN12C renal
SNB-19 CNS = system: SNB-19 CNS
SNB-75 CNS = system: SNB-75 CNS
SNB-78 CNS = system: SNB-78 CNS
SR leukemia = system: SR leukemia
SW-620 colon = system: SW-620 colon
TK-10 renal = system: TK-10 renal
U251 CNS = system: U251 CNS
UACC-257 melanoma = system: UACC-257 melanoma
UACC-62 melanoma = system: UACC-62 melanoma
UO-31 renal = system: UO-31 renal
XF 498 CNS = system: XF 498 CNS

Measured: TGI

Cc1cccc(C)c1NC(=O)CCC(=O)NNc1nnc(C)n1N
> 100 µM: 786-0 renal | A498 renal | A549 NSCLC | ACHN renal | CAKI-1 renal | CCRF-CEM leukemia | COLO 205 colon | DLD-1 colon | DMS 114 small cell lung | DMS 273 small cell lung | EKVX NSCLC | HCC-2998 colon | HCT-116 colon | HCT-15 colon | HL-60(TB) leukemia | HOP-18 NSCLC | HOP-62 NSCLC | HOP-92 NSCLC | HT29 colon | IGROV1 ovarian | K-562 leukemia | KM12 colon | KM20L2 colon | LOX IMVI melanoma | LXFL 529 NSCLC | M14 melanoma | M19-MEL melanoma | MALME-3M melanoma | MOLT-4 leukemia | NCI-H226 lung | NCI-H23 lung | NCI-H460 lung | NCI-H522 lung | OVCAR-3 ovarian | OVCAR-4 ovarian | OVCAR-5 ovarian | OVCAR-8 ovarian | RPMI-8226 leukemia | RXF 393 renal | RXF-631 renal | SF-268 CNS | SF-295 CNS | SF-539 CNS | SK-MEL-2 melanoma | SK-MEL-28 melanoma | SK-MEL-5 melanoma | SK-OV-3 ovarian | SN12C renal | SNB-19 CNS | SNB-75 CNS | SNB-78 CNS | SR leukemia | SW-620 colon | TK-10 renal | U251 CNS | UACC-257 melanoma | UACC-62 melanoma | UO-31 renal | XF 498 CNS

Cc1ccc(N=Nc2c(C)nn(-c3ccccc3)c2C)c(Br)c1
> 100 µM: 786-0 renal | A498 renal | A549 NSCLC | ACHN renal | CAKI-1 renal | CCRF-CEM leukemia | COLO 205 colon | DLD-1 colon | DMS 114 small cell lung | DMS 273 small cell lung | EKVX NSCLC | HCC-2998 colon | HCT-116 colon | HCT-15 colon | HL-60(TB) leukemia | HOP-18 NSCLC | HOP-62 NSCLC | HOP-92 NSCLC | HT29 colon | IGROV1 ovarian | K-562 leukemia | KM12 colon | KM20L2 colon | LOX IMVI melanoma | LXFL 529 NSCLC | M14 melanoma | M19-MEL melanoma | MALME-3M melanoma | MOLT-4 leukemia | NCI-H226 lung | NCI-H23 lung | NCI-H460 lung | OVCAR-3 ovarian | OVCAR-4 ovarian | OVCAR-5 ovarian | OVCAR-8 ovarian | RPMI-8226 leukemia | RXF 393 renal | RXF-631 renal | SF-268 CNS | SF-295 CNS | SF-539 CNS | SK-MEL-2 melanoma | SK-MEL-28 melanoma | SK-MEL-5 melanoma | SK-OV-3 ovarian | SN12C renal | SNB-19 CNS | SNB-75 CNS | SNB-78 CNS | SW-620 colon | TK-10 renal | U251 CNS | UACC-257 melanoma | UACC-62 melanoma | XF 498 CNS
